Laboratory results published in ChEMBL document CHEMBL4616707, “Rationally Designed Covalent BCL6 Inhibitor That Targets a Tyrosine Residue in the Homodimer Interface” (ACS Med Chem Lett, 2020).
Activity calls are given as the source filed them. No cut-off for these calls is given here.

Key:
[1] = test system: SUD4; assay: Antiproliferative activity against human SU-DHL4 cells assessed as growth inhibition at 6.2 uM after 5 days by Celltiter-Glo assay; assay type: functional, cell-based
[2] = target: B-cell lymphoma 6 protein (Homo sapiens) (UniProt P41182); assay: Binding affinity to recombinant human BCL6 (48 to 66 residues) assessed as protein compound adduct formation via Tyr58 residue after 2 hrs by LC-MS/MS analysis
[3] = target: B-cell lymphoma 6 protein (Homo sapiens) (UniProt P41182); assay: Covalent inhibition of human wild type BCL6 expressed in HEK293T cells transfected with eGFP assessed as rescue of BI-3802-induced BCL6 degradation at 5 uM incubated for 30 hrs followed by […] addition and measured after 5 hrs by flow cytometry based mCherry reporter gene analysis; assay type: cell-based; conditions: HEK-293T

CNC(=O)COc1cc2cc(Nc3nc(NCc4cccc(S(C)(=O)=O)c4)ncc3Cl)cc(OC)c2n(C)c1=O
Activity [1]: inactive

CNC(=O)COc1cc2cc(Nc3nc(NCc4cccc(S(=O)(=O)F)c4)ncc3Cl)cc(OC)c2n(C)c1=O
Activity [2]: Active | Activity [1]: Active | Activity [3]: Active

O=C1Cc2cc(Nc3nc(NCc4cccc(S(=O)(=O)F)c4)ncc3Cl)ccc2N1
Activity [2]: Active | Activity [3]: Active
